{
  "source": "patent US6677473B1",
  "about": "“Plasminogen activator inhibitor antagonists” (Corvas International INC, priority 1999, dated 2004)",
  "target": "T1, Human recombinant PAI-1 (Homo sapiens, UniProt P05121)",
  "T1 construct": "made in house; host or cells: E. coli",
  "T1 sequence (P05121 24-402)": "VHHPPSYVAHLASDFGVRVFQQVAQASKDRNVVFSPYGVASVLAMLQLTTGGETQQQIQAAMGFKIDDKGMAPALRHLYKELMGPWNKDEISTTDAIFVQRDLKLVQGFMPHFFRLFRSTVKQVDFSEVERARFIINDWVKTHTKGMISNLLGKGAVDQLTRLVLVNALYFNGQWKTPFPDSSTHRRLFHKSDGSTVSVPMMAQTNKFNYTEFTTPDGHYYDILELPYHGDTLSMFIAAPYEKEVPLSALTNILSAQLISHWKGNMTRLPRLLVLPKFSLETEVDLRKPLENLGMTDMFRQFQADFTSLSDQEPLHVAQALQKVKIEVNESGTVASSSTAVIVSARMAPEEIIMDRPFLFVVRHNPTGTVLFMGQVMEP",
  "test": "Chromogenic assay for plasminogen activator inhibitor type-1 (PAI-1) antagonism (tPA / glu-plasminogen / Spectrozyme PL, OD405)",
  "format": "biochemical",
  "settings": "determined by comparison with control reactions; assay variant (#1-#4) not given; read-out: IC50 for PAI antagonist activity",
  "description": "PAI-1 antagonist assays were performed in a buffer containing Tris, 0.05 mol/L, pH 7.4, 100 mmol/L NaCl, 1 mmol/L EDTA, and 0.01% Tween 80. Human recombinant PAI-1 purified from E coli. and human recombinant tPA were diluted into this standard assay buffer at concentrations of approximately 500-600 ng/mL and 100 ng/mL, respectively. PAI-1 antagonists were dissolved first in DMSO at a concentration of approximately 5 mg/mL, and these solutions were then diluted into the standard reaction buffer to achieve a final compound concentration of 1 mg/mL. Native, purified human glu-plasminogen was purchased from Boehringer Mannheim and was supplied as a lyophilized powder, which was first reconstituted in sterile water to a concentration of 55 μmol/L and then diluted to a concentration of 0.825 μmol/L in standard assay buffer. The chromogenic substrate Spectrozyme PL (H—D-Norleucyl-hexahydrotyrosyl-lysine-p-nitroanilide, American Diagnostica) was prepared as a stock solution with a concentration of 2.5 mmol/L in sterile water. Human fibrin monomer (DESAFIB) was purchased from American Diagnostica and was supplied as a lyophilized powder, which was reconstituted in standard assay buffer at a concentration of 100 μg/mL.\nThe chromogenic assay utilized the reagents described above. Fresh reagent solutions were prepared prior to each assay. Assays were performed in individual wells of standard 96 well mocrotiter assay plates. Standard assays were prepared as follows:\nThe following reagents were combined:\nThe plate was agitated or the individual 25 μL mixtures were pipetted up and down once or twice to assure proper mixing of reagents. The resulting mixture was incubated 15 minutes at room temperature (approximately 21° C.).\nThe following was added to each reaction:\nThe microtiter assay plate was then placed into a Molecular Devices Thermomax or Spectromax Plate Reader, agitated to assure thorough mixing of reagents, and incubated at 37° C. The OD405 of each reaction mixture is measured every minute for 1 hour. Control reactions which lack PAI-1; PAI-1 and test compound; t-PA; or t-PA, PAI-1 and test compound were performed in each assay.\nAssay #2 was performed exactly as assay #1 except that a 10 minute preincubation of the test compound and PAI-1 was performed at room temperature prior to the addition of t-PA.\nAssay #3 was performed exactly as assay #1 except that a wide range of concentrations of each test compound, depending upon the potency of the individual compound, was used in the assay.\nAssay #4 was performed exactly as assay #2 except that a wide range of concentrations of each test compound, depending upon the potency of the individual compound, was used in the assay.\nThe generated plasmin cleaved the chromogenic substrate, Spectrozyme PL, producing pNA (para-nitroaniline). The pNA was detected spectrophotometrically at 405 nm.\nThe degree of inhibition at various concentrations and/or the IC50 value for the compounds provided herein was determined by comparison with control reactions. The IC50 for PAI antagonist activity for each of the compounds specifically disclosed herein has been measured.",
  "data": [
    {"compound": "O=C(O)CCCCCCCCCCOc1c(I)cc(C(=O)O)cc1I", "note": "[4-(10-carboxydecyloxy)-3,5-diiodobenzoic acid]", "values": [
      {"measurement": "IC50", "value": "< 50", "unit": "µM"}
    ]},
    {"compound": "O=C(O)c1cc(I)c(OCc2ccc(I)cc2)c(I)c1", "note": "[3,5-diiodo-4-(4-iodobenzyloxy)benzoic acid]", "values": [
      {"measurement": "IC50", "value": "< 10", "unit": "µM"}
    ]},
    {"compound": "Cc1ccccc1COc1c(I)cc(C(=O)O)cc1I", "note": "[3,5-diiodo-4-(2-methylbenzyloxy)benzoic acid]", "values": [
      {"measurement": "IC50", "value": "< 50", "unit": "µM"}
    ]},
    {"compound": "O=C(O)c1cc(I)c(OCc2c(F)cccc2F)c(I)c1", "note": "[4-(2,6-difluorobenzyloxy)-3,5-diiodobenzoic acid]", "values": [
      {"measurement": "IC50", "value": "< 100", "unit": "µM"}
    ]},
    {"compound": "O=C(c1ccccc1)c1cc(I)c(O)c(I)c1", "note": "[(4-hydroxy-3,5-diiodophenyl)-phenyl-methanone]", "values": [
      {"measurement": "IC50", "value": "< 100", "unit": "µM"}
    ]},
    {"compound": "O=C(c1cc(I)c(O)c(I)c1)c1cc(I)c(OCc2cccc(I)c2)c(I)c1", "note": "[[3,5-diiodo-4-(3-iodobenzyloxy)phenyl]-(4-hydroxy-3,5-diiodophenyl)methanone]", "values": [
      {"measurement": "IC50", "value": "< 10", "unit": "µM"}
    ]},
    {"compound": "O=C(O)CCc1cc(I)c(OCc2ccc(I)cc2)c(I)c1", "note": "[3-[3,5-diiodo-4-(4-iodobenzyloxy)phenyl]propionic acid]", "values": [
      {"measurement": "IC50", "value": "< 10", "unit": "µM"}
    ]},
    {"compound": "O=C(O)COc1c(I)cc(C(=O)c2cc(I)c(O)c(I)c2)cc1I", "note": "[[4-(4-hydroxy-3,5-diiodobenzoyl)-2,6-diiodophenoxy]acetic acid]", "values": [
      {"measurement": "IC50", "value": "< 100", "unit": "µM"}
    ]},
    {"compound": "O=C(C(=O)c1cc(I)c(O)c(I)c1)c1cc(I)c(O)c(I)c1", "note": "[1,2-bis-(4-hydroxy-3,5-diiodophenyl)ethane-1,2-dione]", "values": [
      {"measurement": "IC50", "value": "< 50", "unit": "µM"}
    ]},
    {"compound": "O=C(c1cc(I)c(O)c(I)c1)c1cc(I)c(O)c(I)c1", "note": "[bis(4-hydroxy-3,5-diiodophenyl)methanone]", "values": [
      {"measurement": "IC50", "value": "< 50", "unit": "µM"}
    ]}
  ]
}
